Test results from patent publication US20220142925A1, “NON-STEROIDAL ANTI-INFLAMMATORY LYOPHILIZED PHARMACEUTICAL COMPOSITION” (EUROFARMA LABORATÓRIOS S.A., priority 2019, published 2022).
Like-named read-outs stand apart in the source and are kept apart here.

Assays:
[1] = cited from earlier work; for solubility (in words): aqueous; for solubility: 20° C.
[2] = cited from earlier work
[3] = Forced degradation study (formation of valdecoxib); assay type: physicochemical; details: oxidative, basic, acidic conditions
cyclooxygenase 1 (COX-1) = cyclooxygenase 1 (COX-1) (Homo sapiens, UniProt P23219); details: therapeutic plasma concentrations in humans; cited from earlier work
Sequence of cyclooxygenase 1 (COX-1) (P23219 24-599): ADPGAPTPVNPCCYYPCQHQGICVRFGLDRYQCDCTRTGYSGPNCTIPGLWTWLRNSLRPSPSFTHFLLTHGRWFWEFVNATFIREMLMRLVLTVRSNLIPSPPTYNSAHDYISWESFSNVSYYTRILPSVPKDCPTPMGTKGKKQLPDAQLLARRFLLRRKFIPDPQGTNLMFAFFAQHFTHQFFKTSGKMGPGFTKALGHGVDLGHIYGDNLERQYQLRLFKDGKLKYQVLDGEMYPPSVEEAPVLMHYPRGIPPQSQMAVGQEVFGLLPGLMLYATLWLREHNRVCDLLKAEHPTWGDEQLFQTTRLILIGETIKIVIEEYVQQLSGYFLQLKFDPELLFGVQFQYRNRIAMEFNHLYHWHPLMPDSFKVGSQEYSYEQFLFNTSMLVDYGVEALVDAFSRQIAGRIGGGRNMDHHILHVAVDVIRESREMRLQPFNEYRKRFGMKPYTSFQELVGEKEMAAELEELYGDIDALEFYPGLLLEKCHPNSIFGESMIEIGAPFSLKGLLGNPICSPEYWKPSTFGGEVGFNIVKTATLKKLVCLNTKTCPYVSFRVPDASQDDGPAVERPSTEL

CCC(=O)NS(=O)(=O)c1ccc(-c2c(-c3ccccc3)noc2C)cc1 [Parecoxib, parecoxib]
solubility in methylene hydrochloride ([1]; methylene chloride): insoluble | solubility in tetrahydrofuran ([1]; tetrahydrofuran): slightly soluble | solubility in water ([1]; water): very soluble | pH of 1% parecoxib in water ([2]; 1% in water at 25° C.): about 7.80 | dissociation constant, pKa [2]: 6.07

CCC(=O)NS(=O)(=O)c1ccc(-c2c(-c3ccccc3)noc2C)cc1 [acidic form of parecoxib]
solubility (in words) [1]: low solubility

CCC(=O)NS(=O)(=O)c1ccc(-c2c(-c3ccccc3)noc2C)cc1.[Na+] [parecoxib sodium, N-[[4-(5-methyl-3-phenyl-4-isoxazolyl)phenyl]sulfonyl]propanamide sodium salt]
solubility ([1]; pH 7.8): 18 mg/mL | solubility ([1]; pH 8.3): 220 mg/mL | solubility (in words) [1]: highly soluble | sensitivity in forced degradation in relation to the formation of valdecoxib [3]: sensitive to oxidative, basic, and acidic conditions

Cc1onc(-c2ccccc2)c1-c1ccc(S(N)(=O)=O)cc1 [valdecoxib]
solubility (in words) [1]: low | inhibition of cyclooxygenase 1 (COX-1) (cyclooxygenase 1 (COX-1)): does not inhibit
